{"source": "patent US20060177839A1", "about": "“Method for modulating the evolution of a polypeptide encoded by a nucleic acid sequence” (priority 2004, published 2006)", "tested_on": "dfrB1 WT gene (dehydrofolate reductase conferring resistance to trimethoprim)", "details": "resistance conferred by dfrB1 WT gene", "data": [{"molecule": "COc1cc(Cc2cnc(N)nc2N)cc(OC)c1OC", "note": "[trimethoprim]", "values": [{"measurement": "MIC", "result": 512, "unit": "micg/ml"}]}]}
